Measured values taken from patent publication US8399422B2, “Compositions for transfection of oligonucleotides active for gene silencing and their biological and therapeutical applications” (Polyplus-Transfection, priority 2006, dated 2013).

Experiments:
[1] = system: luciferase gene (pGL3) stably expressed by A549-GL3Luc cells; test: Luciferase gene (pGL3) silencing by GL3Luc siRNA transfection of A549-GL3Luc cells; format: cell-based, human; conditions: 48 h
Method: A549 (human lung carcinoma, ATCC No CCL-185) cells stably expressing the GL3 luciferase (Photinus pyralis luciferase under the control of SV40 elements) were obtained after stable transfection of pGL3Luc plasmid (Clontech). A549-GL3Luc cells were grown in RPMI-1640 and supplemented with 10% fetal bovine serum, 2 mM glutamax, 100 units/ml penicillin, 100 μg/ml streptomycin and 0.8 μg/ml G418 (Promega). All the cells were maintained at 37° C. in a 5% CO2 humidified atmosphere.
One day before transfection, 2.5×10^4 cells were seeded in 24-well tissue culture plate in 1 ml fresh complete medium containing 10% FBS. Before transfection, complexes of siRNA/transfection reagent were prepared. The desired amount of siRNAs was diluted in 100 μl of serum-free medium. The solution was mixed with a Vortex for 10 seconds. Then, 0.5 μl to 3 μl of amphiphilic molecules-based formulations were added to siRNA solution. The final mixture was mixed with a Vortex for 10 seconds, and left for 10 minutes at room temperature. Then, 100 μl of complexes solution were added per well and the plates were incubated at 37° C. […]
For all transfection protocols, the plates were further incubated at 37° C. for 48 h.
Luciferase gene expression was measured using a commercial kit (Promega, France). After removing the complete medium, three washings with 1 ml of PBS solution were made. Then, 100 μl of 1× lysis buffer were added per well, and the plate was incubated at room temperature for 30 minutes. The lysates were collected and centrifuged at 14,000 g for 5 minutes. The luciferase assay was assessed with 5 μl of lysate after injection of 100 μl of luciferin solution. The luminescence (RLU) was monitored with an integration over 10 seconds with a luminometer (LB960, Berthold, France). Results are expressed as light units integrated over 10 seconds (RLU), per mg of cell protein using the BCA assay (Pierce, France).
As a target model of endogenous reporter gene, A549 cells stably expressing the GL3 luciferase were used (Photinus pyralis luciferase under the control of SV40 elements). A well defined and conventional siRNA, chemically produced, and sequence-specific GL3Luc siRNA of SEQ ID No 1 and 2 composed of a short dsRNA of 19 nucleotides matching the GL3Luc mRNA and comprising 3′-overhangs of 2 deoxyribonucleotides (dT) was used for the transfection experiments. A formulation of cationic amphiphile MONI at 1 mM and combined with neutral phospholipid DOPE at 1 mM in ethanol was prepared. SiRNA diluted in serum-free medium (100 μl) was then complexed with 2 μl of the formulation of MONI/DOPE (1 mM/1 mM in ethanol). The resulting solution of transfection complexes was added on the cells growing in medium containing serum and cells were finally exposed to siRNA concentration range from 100 to 2000 pM (FIG. 1). The silencing efficiency was determined 48 h post-transfection by measuring the luciferase activity with a standard luminescence assay normalized by the protein content of cell lysates. The luciferase activity (expressed as RLU/mg of protein) was inhibited up to 90% when the transfection was performed with 2000 pM of siRNA.
Formulations composed of amphiphilic cationic molecule/DOPE (1 mM/2 mM in 10% ethanol and water) were used to complex siRNA and transfect A549-GL3Luc cells. Luciferase gene expression was measured after 48 h incubation period. Experiments were made in triplicates and the GL3 luciferase silencing efficiency was calculated from the luciferase level of transfected cells with a control GL2-Luc siRNA and normalized by the content of protein in the cell lysates.

[2] = system: luciferase gene (pGL3) stably expressed by A549-GL3Luc cells; test: Reverse transfection in 96-well plate, luciferase silencing in A549-GL3Luc cells; format: cell-based, human; conditions: transfected with liposomal MONI/DOPE (½ mM), 48 h
Method: GL3Luc siRNA diluted in 50 μl of serum free medium were complexed (in 96-well tissue culture plate format, n=6) for 5 minutes with 1 μl of formulation composed of MONI/DOPE in water (1 mM/2 mM). Then, 10,000 A549-GL3Luc cells, stably expressing the luciferase gene, in 125 μl of medium containing serum were added per well. Luciferase gene expression was measured after 48 h incubation period. As unspecific siRNA control, siRNA matching the GL2 luciferase sequence were transfected in the same conditions. Luciferase gene expression was measured after 48 h incubation period and the luciferase activity was expressed as Relative Light Unit (RLU) normalized by the content of protein in the cell lysates (mg of protein). GL3 luciferase silencing efficiency (FIG. 3B) was calculated from the endogenous luciferase level of untransfected A549-GL3Luc cells normalized by the content of protein in the cell lysates.
Complexes of siRNA/transfection reagent were prepared first. […]
Luciferase gene expression was measured using a commercial kit (Promega, France). […] The luciferase assay was assessed with 5 μl of lysate after injection of 100 μl of luciferin solution. The luminescence (RLU) was monitored with an integration over 10 seconds with a luminometer (LB960, Berthold, France). Results are expressed as light units integrated over 10 seconds (RLU), per mg of cell protein using the BCA assay (Pierce, France). […]

## GL2Luc siRNA: siRNA duplex SEQ ID No 3 and 4 matching the GL2 luciferase sequence, unspecific control (chain 1 CGUACGCGGAAUACUUCGATT; chain 2 TTGCAUGCGCCUUAUGAAGCU; chemistry not fully specified; one strand is listed 3' to 5') [reference compound]
[1]; transfected with MONBI 1 mM/DOPE 2 mM in ethanol, same conditions
  luciferase level with unrelated GL2Luc siRNA: the luciferase level was not affected
[1]; transfected with MONI/DOPE 1 mM/1 mM in ethanol, same conditions (100 to 2000 pM)
  effect of unrelated GL2Luc siRNA on luciferase activity: absence of effect on the luciferase activity
[2]
  luciferase inhibition with unrelated GL2Luc siRNA, reverse transfection: absence of luciferase inhibition
